Tests used:
CYP26B1 = CYP26B1 mRNA expression in neuroblastoma cells, real-time PCR; assay type: cell-based, human; conditions: 24 h
Method: (§1) SH-SY5Y, SH-EP (N- and S-type cells respectively derived from the parental line SK-N-SH), LAN6, IMR-32, NGP and GIMEN neuroblastoma cell lines were cultured routinely in RPMI 1640 medium containing fetal calf serum (10%) and L-glutamine (2 mM). Cells were grown at 37°C in a humidified incubator containing 5% CO2.
(§2) 13-cis-Retinoic acid and ATRA were dissolved in DMSO and diluted in cell culture medium to obtain final concentrations of 0.1–10 μM. The final concentration of DMSO in all cases was <0.2%. All experiments were performed in dim light and tubes containing retinoids were wrapped in aluminium foil.
CYP26 short hairpin RNAs (shRNAs) were generated using the siSTRIKE U6 Hairpin Cloning System (Promega, Southampton, UK). The CYP26A1, B1 and Ctrl siRNA sequences were designed using Promega software. The cDNA target sequences were CYP26A1 5′-gcgcatcgagcagaacatt; CYP26B1 5′-gtcgcggagggagaagtat; and Ctrl 5′-gccccgcaattgagaaatg. Sense and antisense strands were annealed and ligated into the linearised psiSTRIKE Neomycin Vector. SH-SY5Y cells were transfected with psi-CYP26A1 or psi-CYP26B1 either singly or in combination, or with psi-Ctrl, in six-well plates (1 μg each) or 75 cm^2 flasks (8.9 μg each) using FuGENE 6 reagent (Roche, Lewes, UK) according to the manufacturer's instructions. After a 6 h transfection, cells were treated with ATRA for 40 h and harvested for RNA isolation and HPLC analysis.
RNA was reverse-transcribed using Promega's Reverse Transcription System according to the manufacturer's instructions, using random hexamer primers. […] As internal standard, β-actin was measured simultaneously using the endogenous control assay provided by Applied Biosystems. […] Standard curves were generated from serial dilutions of cDNA prepared from cells treated with ATRA (1 μM) and the data were analysed using the GeneAmp Sequence Detection System software. CYP26C1 expression was analysed as described previously ([Taimi et al, 2004]).

RA metabolism = assay: Effect of R116010 on retinoid concentrations (plasma, liver, tumour) in an SH-SY5Y xenograft model, LC/MS; assay type: in vivo, CD-1 nude mice
Method: All in vivo experiments were approved by the relevant institutional animal welfare committees, and performed according to national law. Female athymic nude mice (CD-1 nu/nu, Charles River) used for antitumour studies were maintained and handled in isolators, under specific pathogen-free conditions, at 24°C with a 12 h light, 12 h dark cycle. Tumours were generated by implantation of SH-SY5Y cells subcutaneously (s.c.) into one flank of CD-1 nude mice (1 × 10^7 cells per animal).
Treatments began when the tumours were between 7 and 10 mm in length and breadth. Retinoids and R116010 were initially dissolved in DMSO before 10- or 20-fold dilutions in PBS, respectively. For pharmacokinetic studies, the animals were dosed with ATRA or 13cisRA (each 100 mg kg^−1) orally for 0.5, 2 and 6 h. For metabolism studies, animals were treated with R116010 orally at doses of 1.25 or 2.5 mg kg^−1 either immediately before the retinoid being studied, or up to three times (over 1–2 days) before dosing with the retinoid. At termination of experiments, animals were bled under terminal anaesthesia then killed by cervical dislocation. Plasma was immediately removed from the blood by centrifugation at 1000 g for 5 min and snap-frozen in liquid nitrogen in amber Eppendorfs. Tumour and liver samples were removed and snap-frozen, wrapped in foil, in liquid nitrogen.
(§3) Cell pellets obtained from retinoid incubations were re-suspended in 2 ml cell culture medium and disrupted by passing the samples several times through a syringe and hypodermic needle (25G × 1 inches, 0.5 mm × 25 mm; Terumo, Somerset, NJ, USA). Tumour and liver tissues were re-suspended in PBS and homogenised (T25 homogeniser, IKA Laboratories, Staufen, Germany). Retinoids were extracted as described previously ([Veal et al, 2002]; [Armstrong et al, 2005b]). Samples were reconstituted in 200 μl mobile phase A (n-hexane:dichloromethane:propan-2-ol, 400 : 1 : 0.27) and analysed by normal-phase HPLC as described previously ([Veal et al, 2002]). For LC/MS analysis, samples were reconstituted in 200 μl mobile phase A (50% acetonitrile, 50% (0.2%) acetic acid, v v^−1).
(§4) Resolution of retinoids was performed with a Luna C18(2) column (3 μm, 50 mm × 2 mm) using a Perkin Elmer LC (Beaconsfield, UK) system, consisting of a vacuum degasser, two series 200 pumps, a thermostatically controlled series 200 autosampler and a Waters 2487 UV absorbance detector. Retinoic isomers and metabolites were separated by gradient reversed-phase chromatography. An injection volume of 20 μl with a flow rate of 0.2 ml min^−1 was used with mobile phase A (50% acetonitrile, 50% (0.2%) acetic acid, v v^−1) and mobile phase B (acetonitrile, 0.1% acetic acid, v v^−1). Linear gradients were employed between the specified times as follows: 0, 100% A; 5 min, 100% A; 15 min, 100% B; 20 min, 100% B; 23 min, 100% A; 35 min, 100% A. An Applied Biosystems (Warrington, UK) API-2000 LC/MS/MS triple Q (quadrupole) mass spectrometer with electrospray ionisation source, controlled by Analyst software, was operated in single quadrupole negative mode for the detection of compounds.

[1] = tested on: SH-SY5Y, NGP, SH-EP and GIMEN cells; assay: Intracellular all-trans-4-oxo-RA levels in neuroblastoma cells, LC/MS; assay type: cell-based, human
Method: as §1, §2, §3, §4

[2] = 13cisRA 100 mg kg^−1 with increasing doses of R116010, 6 h
[3] = ATRA-treated mice (100 mg kg^−1) with R116010, 6 h

`CC1=C(/C=C/C(C)=C/C=C/C(C)=C/C(=O)O)C(C)(C)CCC1` [ATRA, all-trans-retinoic acid] was tested, and the CYP26B1 induction (CYP26B1; 0.1 μM retinoid, panel of neuroblastoma cell lines, relative to SH-SY5Y cells treated with 0.01 μM ATRA) was “induced in all cell lines examined, except IMR-32”.
With `C[C@@H]([C@H](c1ccc(Nc2nc3ccccc3s2)cc1)n1ccnc1)N(C)C` [R116010] the “Effect on CYP26B1 expression, R116010 alone” value (CYP26B1; SH-SY5Y cells, R116010 1 μM alone) was “no effect”, the “Effect on CYP26B1 expression, co-incubation with retinoid” value (CYP26B1; SH-SY5Y cells, R116010 1 μM with ATRA or 13cisRA (0.01, 0.1 μM) vs retinoid alone) was “significantly increased” and the “Increase in 13cisRA plasma concentration” value (RA metabolism; 13cisRA 100 mg kg^−1 after four doses of R116010 at 2.5 mg kg^−1 vs 13cisRA alone, 6 h) was at most 4.6 fold. The “Effect on 13cisRA plasma concentrations” value (RA metabolism; 13cisRA 100 mg kg^−1 with increasing doses of R116010 (1.25; 2.5 mg kg^−1 x1, x2, x4) vs retinoid alone, 6 h) was “significant increases”, the “Effect on plasma 13cis-4-oxo-RA concentrations” value (RA metabolism; [2]) was “no significant dose-dependent effect” and the “Effect on plasma AT-4-oxo-RA concentrations” value (RA metabolism; [2]) was “apparent linear increase”. For the same compound, the “Effect on ATRA plasma concentrations” value (RA metabolism; 13cisRA 100 mg kg^−1 with increasing doses of R116010 vs retinoid alone, 6 h) was “significant increases”, the “Effect on liver ATRA levels” value (RA metabolism; 13cisRA 100 mg kg^−1 with one and two doses of 2.5 mg kg^−1 R116010, 6 h) was “increased slightly” and the “Tumour 13cisRA levels with R116010” value (RA metabolism; 13cisRA 100 mg kg^−1 with single dose R116010 at 2.5 mg kg^−1, SH-SY5Y tumour, 6 h) was 0.59 ± 0.07 µg/g. For the same compound, the “Effect on levels of the 4-oxo-RA metabolites in tumour” value (RA metabolism; 13cisRA or ATRA in combination with R116010 vs retinoid alone) was “no significant differences”, the “Effect on levels of ATRA in tumour samples” value (RA metabolism; 13cisRA-treated mice with R116010) was “not significantly affected” and the “Increase in plasma ATRA concentrations” value (RA metabolism; ATRA 100 mg kg^−1 after four doses of R116010 at 2.5 mg kg^−1 vs ATRA alone, 6 h) was at most 2.3 fold. The “Effect on liver 13cisRA or ATRA levels” value (RA metabolism; ATRA 100 mg kg^−1 in combination with R116010, 6 h) was “No significant increases”, the “Effect on liver 13cis-4-oxo-RA and AT-4-oxo-RA levels” value (RA metabolism; ATRA 100 mg kg^−1 in combination with R116010 or after R116010 pretreatment, 6 h) was “significant decreases” and the “Effect on plasma 13cisRA concentrations” value (RA metabolism; [3]) was “marginal”. The “Effect on plasma AT-4-oxo-RA levels” value (RA metabolism; [3]) was “no effect”, the “Effect on liver 13cisRA levels” value (RA metabolism; R116010 before 13cisRA 100 mg kg^−1, 6 h) was “not associated with 13cisRA levels being different from control” and the “Effect on liver 13cis-4-oxo-RA and AT-4-oxo-RA concentrations” value (RA metabolism; R116010 before 13cisRA 100 mg kg^−1, all conditions, 6 h) was “significantly lower levels”. For the same compound, the “Effect on levels of retinoids in tumour tissue” value (RA metabolism; R116010 before ATRA) was “no significant differences”, the “Decrease in AT-4-oxo-RA levels” value ([1]; NGP cells, 10 μM 13cisRA with 10 μM R116010, 24 h) was 13.2 fold and the “Reduction in intracellular AT-4-oxo-RA levels” value ([1]; NGP cells, 10 μM ATRA with 10 μM R116010, 24 h) was 3.8 fold. The “Effect on AT-4-oxo-RA levels” value ([1]; SH-EP and GIMEN cells, 10 μM 13cisRA with 10 μM R116010, 24 h) was “no significant effect”, the “Decrease in AT-4-oxo-RA levels” value ([1]; SH-SY5Y cells, 10 μM 13cisRA with 10 μM R116010, 24 h) was 3.5 fold and the “Reduction in intracellular AT-4-oxo-RA levels” value ([1]; SH-SY5Y cells, 10 μM ATRA with 10 μM R116010, 24 h) was 3 fold. For the same compound, the “Effect on intracellular AT-4-oxo-RA levels” value ([1]; low CYP26-expressing cell lines (SH-EP, GIMEN), 10 μM ATRA with 10 μM R116010, 24 h) was “no significant effect”.

Source: paper PMC2359919, “Molecular targeting of retinoic acid metabolism in neuroblastoma: the role of the CYP26 inhibitor R116010 in vitro and in vivo” (British Journal of Cancer, 2007)
